Results reported in patent US12084485B2 (Intarcia Therapeutics, Inc., priority 2020, dated 2024).
Like-named read-outs stand apart in the source and are kept apart here.

Tests used:
[1] = Acute food intake inhibition in Long Evans rats after bolus SC dosing (BioDAQ); assay type: in vivo, rat; settings: 30 mcg SC bolus
[2] = Body weight changes in LE rats after bolus SC dosing; assay type: in vivo, rat; settings: 30 mcg/kg SC bolus
[3] = Weight-loss efficacy in LE DIO rats after bolus SC dosing; assay type: in vivo, rat; settings: male LE DIO rats, from baseline and vehicle control (ΔΔ %)
[4] = Solubility in saline or DI water at room temperature (visual inspection); assay type: physicochemical
[5] = Stability in DMSO or DI water at 37° C. (purity by LC/MS and HPLC); assay type: physicochemical
[6] = cited from earlier work
[7] = Comparative in vivo weight loss potency, A120 vs semaglutide, DIO rats (28 days); set-up: species or system rat
HbA1c = assay: Comparative in vivo HbA1c lowering potency, A120 vs semaglutide (28 days); set-up: species or system rat
[8] = Body composition (quantitative magnetic resonance) in male LE DIO rats; assay type: in vivo, rat; settings: day 26
[9] = Body composition in male ZDF rats; assay type: in vivo, rat; settings: day 25
[10] = solute Saline, TFA salt unless indicated otherwise
[11] = ΔΔ % weight decrease in DIO rat at day 27
[12] = ΔΔ % change in HbA1c in ZDF rat at day 27

CC[C@H](C)[C@@H]1NC(=O)[C@H](Cc2ccccc2)NC(=O)[C@H](CCCCN)NC(=O)[C@@H](NC(=O)[C@@H](NC(=O)[C@H](C)NC(=O)[C@H](CCC(=O)O)NC(=O)[C@H](CCCCNC(=O)CC[C@H](NC(=O)CC[C@H](NC(=O)COCCOCCNC(=O)CCCCCCCCCCCCCCCCCCC(=O)O)C(=O)O)C(=O)O)NC(=O)[C@H](CCC(=O)O)NC(=O)[C@H](Cc2ccc(O)cc2)NC(=O)[C@H](CCC(N)=O)NC(=O)[C@H](CCCCN)NC(=O)[C@H](CO)NC(=O)[C@@H](NC(=O)[C@H](CC(=O)O)NC(=O)[C@H](CO)NC(=O)[C@@H](NC(=O)[C@H](Cc2ccccc2)NC(=O)[C@@H](NC(=O)CNC(=O)[C@H](CCC(=O)O)NC(=O)C(C)(C)NC(=O)[C@@H](N)Cc2c[nH]cn2)[C@@H](C)O)[C@@H](C)O)C(C)C)C(C)C)CCCCNC(=O)CC[C@@H](C(=O)N[C@@H](Cc2c[nH]c3ccccc23)C(=O)N[C@@H](CC(C)C)C(=O)N[C@@H](CCCCN)C(=O)N[C@@H](CC(N)=O)C(=O)NCC(=O)NCC(=O)N2CCC[C@H]2C(=O)N[C@@H](CO)C(=O)N[C@@H](CO)C(=O)NCC(=O)N[C@@H](C)C(=O)N2CCC[C@H]2C(=O)N2CCC[C@H]2C(=O)N2CCC[C@H]2C(=O)N[C@@H](CO)C(N)=O)NC1=O [Compound A135]
% Food Intake Inhibition from Vehicle, 0-24 hr [1]: −52.6%
% Food Intake Inhibition from Vehicle, 25-48 hr [1]: −62.2%
% Food Intake Inhibition from Vehicle, 49-72 hr [1]: −29.4%
% Food Intake Inhibition from Vehicle, 73-96 hr [1]: −8.0%
% Weight change from Vehicle, 1 d [2]: −4.3%
% Weight change from Vehicle, 2 d [2]: −7.4%
% Weight change from Vehicle, 3 d [2]: −6.4%
% Weight change from Vehicle, 4 d [2]: −4.2%
DIO Weight Loss (30 mcg/kg SC bolus) % Weight change from Vehicle 2 d [3]: −3.7%
DIO Weight Loss (30 mcg/kg SC bolus) % Weight change from Vehicle 3 d [3]: −4.8%
DIO Weight Loss (30 mcg/kg SC bolus) % Weight change from Vehicle 4 d [3]: −4.3%

CC[C@H](C)[C@@H]1NC(=O)[C@H](Cc2ccccc2)NC(=O)[C@H](CCCCN)NC(=O)[C@@H](NC(=O)[C@H](C)NC(=O)[C@H](C)NC(=O)[C@H](CCC(=O)O)NC(=O)[C@H](CCCCNC(=O)CC[C@H](NC(=O)CC[C@H](NC(=O)COCCOCCNC(=O)CCCCCCCCCCCCCCCCCCC(=O)O)C(=O)O)C(=O)O)NC(=O)[C@H](CCC(=O)O)NC(=O)[C@H](Cc2ccc(O)cc2)NC(=O)[C@H](CCC(N)=O)NC(=O)[C@H](CCCCN)NC(=O)[C@H](CO)NC(=O)[C@@H](NC(=O)[C@H](CC(=O)O)NC(=O)[C@H](CO)NC(=O)[C@@H](NC(=O)[C@H](Cc2ccccc2)NC(=O)[C@@H](NC(=O)CNC(=O)[C@H](CCC(=O)O)NC(=O)C(C)(C)NC(=O)[C@@H](N)Cc2c[nH]cn2)[C@@H](C)O)[C@@H](C)O)C(C)C)CCCCNC(=O)CC[C@@H](C(=O)N[C@@H](Cc2c[nH]c3ccccc23)C(=O)N[C@@H](CC(C)C)C(=O)N[C@@H](CCCCN)C(=O)N[C@@H](CC(N)=O)C(=O)NCC(=O)NCC(=O)N2CCC[C@H]2C(=O)N[C@@H](CO)C(=O)N[C@@H](CO)C(=O)NCC(=O)N[C@@H](C)C(=O)N2CCC[C@H]2C(=O)N2CCC[C@H]2C(=O)N2CCC[C@H]2C(=O)N[C@@H](CO)C(N)=O)NC1=O [Compound A137]
% Food Intake Inhibition from Vehicle, 0-24 hr [1]: −67.0%
% Food Intake Inhibition from Vehicle, 25-48 hr [1]: −69.0%
% Food Intake Inhibition from Vehicle, 49-72 hr [1]: −25.7%
% Food Intake Inhibition from Vehicle, 73-96 hr [1]: −14.7%
% Weight change from Vehicle, 1 d [2]: −4.7%
% Weight change from Vehicle, 2 d [2]: −6.6%
% Weight change from Vehicle, 3 d [2]: −6.0%
% Weight change from Vehicle, 4 d [2]: −4.8%
DIO Weight Loss (30 mcg/kg SC bolus) % Weight change from Vehicle 2 d [3]: −3.0%
DIO Weight Loss (30 mcg/kg SC bolus) % Weight change from Vehicle 3 d [3]: −2.9%
DIO Weight Loss (30 mcg/kg SC bolus) % Weight change from Vehicle 4 d [3]: −2.7%

CC[C@H](C)[C@H](NC(=O)[C@H](Cc1ccccc1)NC(=O)[C@H](CCC(=O)O)NC(=O)[C@H](CCCNC(=N)N)NC(=O)[C@H](C)NC(=O)[C@H](C)NC(=O)[C@H](CCC(=O)O)NC(=O)[C@H](CCCCNC(=O)CC[C@H](NC(=O)CC[C@H](NC(=O)COCCOCCNC(=O)CC[C@H](NC(=O)CC[C@H](NC(=O)CCCCCCCCCCCCCCCCCCC(=O)O)C(=O)O)C(=O)O)C(=O)O)C(=O)O)NC(=O)[C@H](CCC(=O)O)NC(=O)[C@H](Cc1ccc(O)cc1)NC(=O)[C@H](CCC(N)=O)NC(=O)[C@H](CCCCN)NC(=O)[C@H](CO)NC(=O)[C@H](CC(C)C)NC(=O)[C@H](CC(=O)O)NC(=O)[C@H](CO)NC(=O)[C@@H](NC(=O)[C@H](Cc1ccccc1)NC(=O)[C@@H](NC(=O)CNC(=O)[C@H](CCC(=O)O)NC(=O)C(C)(C)NC(=O)[C@@H](N)Cc1c[nH]cn1)[C@@H](C)O)[C@@H](C)O)C(=O)N[C@@H](CCC(=O)O)C(=O)N[C@@H](Cc1c[nH]c2ccccc12)C(=O)N[C@@H](CC(C)C)C(=O)N[C@@H](CCCCN)C(=O)N[C@@H](CC(N)=O)C(=O)NCC(=O)NCC(=O)N1CCC[C@H]1C(=O)N[C@@H](Cc1c[nH]cn1)C(=O)N[C@@H](CO)C(=O)NCC(=O)N[C@@H](C)C(=O)N1CCC[C@H]1C(=O)N1CCC[C@H]1C(=O)N1CCC[C@H]1C(=O)N[C@@H](CO)C(N)=O [Compound A154]
solubility ([4]; Solubility (mg/mL) in DI water): > 70 mg/mL
solubility ([4]; Solubility (mg/mL) in saline): > 106 mg/mL

CC[C@H](C)[C@H](NC(=O)[C@H](Cc1ccccc1)NC(=O)[C@H](CC(C)C)NC(=O)[C@H](CCCNC(=N)N)NC(=O)[C@@H](NC(=O)[C@H](C)NC(=O)[C@H](CCC(=O)O)NC(=O)[C@H](CCCCNC(=O)CC[C@H](NC(=O)COCCOCCNC(=O)CCCCCCCCCCCCCCCCCCC(=O)O)C(=O)O)NC(=O)[C@H](CCC(=O)O)NC(=O)[C@H](Cc1ccc(O)cc1)NC(=O)[C@H](CCC(N)=O)NC(=O)[C@H](CCCCN)NC(=O)[C@H](CO)NC(=O)[C@H](CC(C)C)NC(=O)[C@H](CC(=O)O)NC(=O)[C@H](CCC(=O)O)NC(=O)[C@@H](NC(=O)[C@H](Cc1ccccc1)NC(=O)[C@@H](NC(=O)CNC(=O)[C@H](CCC(=O)O)NC(=O)C(C)(C)NC(=O)[C@@H](N)Cc1c[nH]cn1)[C@@H](C)O)[C@@H](C)O)C(C)C)C(=O)N[C@@H](CO)C(=O)N[C@@H](Cc1c[nH]c2ccccc12)C(=O)N[C@@H](CC(C)C)C(=O)N[C@@H](CCCCN)C(=O)N[C@@H](CC(N)=O)C(=O)NCC(=O)NCC(=O)N1CCC[C@H]1C(=O)N[C@@H](CO)C(=O)N[C@@H](CO)C(=O)NCC(=O)N[C@@H](C)C(=O)N1CCC[C@H]1C(=O)N1CCC[C@H]1C(=O)N1CCC[C@H]1C(=O)N[C@@H](CO)C(N)=O [Compound A162]
Stability @ 37° C. (% purity) Day 14 ([5]; solute DI H2O, 37° C., TFA salt unless indicated otherwise): 96.6%
Stability @ RT (% purity) Day 0 ([5]; solute DI H2O, TFA salt unless indicated otherwise, 1 mg/ml): 95.8%
Stability @ RT (% purity) Day 14 ([5]; solute DI H2O, TFA salt unless indicated otherwise): 94.7%
Stability @ RT (% purity) Day 28 ([5]; solute DI H2O, Day 28, TFA salt unless indicated otherwise): 94.5%
Stability @ 37° C. (% purity) Day 14 ([5]; solute Saline, 37° C., TFA salt unless indicated otherwise): 96.7%
Appearance of stability sample (cloudy / particulates) ([5]; solute Saline, 37° C., Day 28): (c)
Stability @ 37° C. (% purity) Day 28 ([5]; solute Saline, 37° C., Day 28, TFA salt unless indicated otherwise): 85.5%
Stability @ RT (% purity) Day 0 [5, 10]: 97.9%
Stability @ RT (% purity) Day 14 [5, 10]: 93.7%
Stability @ RT (% purity) Day 28 ([5]; solute Saline, Day 28, TFA salt unless indicated otherwise): 94.9%
solubility ([4]; DI water, room temperature, as TFA salt unless indicated otherwise, read-out: Solubility (mg/mL) in DI water): > 101 mg/mL
solubility ([4]; saline, room temperature, as TFA salt unless indicated otherwise, read-out: Solubility (mg/mL) in saline): > 101 mg/mL

human amylin: 37-residue polypeptide hormone co-secreted with insulin from pancreatic β-cells
half-life in serum [6]: about 13 minutes

semaglutide
% Weight loss EC50 [7, 11]: 3.9 ng/mL
% Weight loss ED50 [7, 11]: 23 µg/kg/day
% Weight loss at 300 mcg/kg/day dose ([7]; ΔΔ % weight decrease in DIO rat at day 27, 300 mcg/kg/day): 24%
% Change HbA1c EC50 (HbA1c; [12]): 6 ng/mL
% Change HbA1c ED50 (HbA1c; [12]): 36 µg/kg/day
% Change HbA1c at 300 mcg/kg/day dose (HbA1c; ΔΔ % change in HbA1c in ZDF rat at day 27, 300 mcg/kg/day): 4.8%
changes in body composition [8]: primarily due to fat mass loss
changes in body composition [9]: primarily due to fat mass loss
